Laboratory results reported in the supplement of paper PMC4862054.
Values belong to the compound of their own block, whether it stands above or below them.

How the values were obtained:
Hs578T [1] = experiment: normalised viability (% of control), CellTiter-Blue; higher = more viable cells (100 = DMSO, 0 = benzethonium chloride kill control); details: incubation time: 72 h
Summary of the method: (§1)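 Normalised viability is given for a single listed concentration of the series. In 384-well plates, breast cancer cell lines were incubated 72 h with compound, then read with CellTiter-Blue (2 h, 37 °C) at 560/590 nm. Per-plate scaling set vehicle to 100 and a positive kill control to 0, with Z'-factor quality control.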

MDA-MB-436 [2] = experiment: as above; details: incubation time: 72 h
Summary of the method: as §1

CAL-120 [3] = details: 72 h
Summary of the method: (§2)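 In this assay, breast cancer cell lines spent 72 h with compound at 5 concentrations in 10-fold steps over a compound-specific 10,000-fold range. The first readout was cell death by CellTox Green fluorescence, and the second was viability by CellTiter-Glo luminescence, each normalised per plate to 0.1 % DMSO and a positive kill control. EC50 came from the dose-response curves, censored at the top concentration.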

MDA-MB-453 [4] = details: 72 h
Summary of the method: as §2

CAL-51 [5] = details: 72 h
Summary of the method: as §2

BT-549 [6] = details: 72 h
Summary of the method: as §2

SK-BR-3 [7] = details: 72 h
Summary of the method: as §2

MDA-MB-468 [8] = details: 72 h
Summary of the method: as §2

CAL-85-1 [9] = details: 72 h
Summary of the method: as §2

BT-474 [10] = details: 72 h
Summary of the method: as §2

MCF-10A = details: 72 h
Summary of the method: as §2

MDA-MB-231 [11] = details: 72 h
Summary of the method: as §2

Hs578T [12] = details: 72 h
Summary of the method: as §2

MDA-MB-436 [13] = details: 72 h
Summary of the method: as §2

HDQ-P1 [14] = experiment: normalised viability (% of control), CellTiter-Blue; higher = more viable cells (about 100 = DMSO control); details: incubation time: 72 h
Summary of the method: as §1

CAL-148 [15] = experiment: as above; details: incubation time: 72 h
Summary of the method: as §1

BT-474 [16] = experiment: as above; details: incubation time: 72 h
Summary of the method: as §1

MDA-MB-231 [17] = experiment: as above; details: incubation time: 72 h
Summary of the method: as §1

MDA-MB-436 [18] = experiment: as above; details: incubation time: 72 h
Summary of the method: as §1

HDQ-P1 [19] = experiment: as above; details: incubation time: 72 h; remark: listed apart in the source
Summary of the method: as §1

MFM-223 = experiment: as above; details: incubation time: 72 h
Summary of the method: as §1

CAL-120 [20] = experiment: as above; details: incubation time: 72 h
Summary of the method: as §1

HCC1143 = experiment: as above; details: incubation time: 72 h
Summary of the method: as §1

DU-4475 = experiment: as above; details: incubation time: 72 h
Summary of the method: as §1

MDA-MB-453 [21] = experiment: as above; details: incubation time: 72 h
Summary of the method: as §1

CAL-51 [22] = experiment: as above; details: incubation time: 72 h
Summary of the method: as §1

CAL-148 [23] = experiment: as above; details: incubation time: 72 h; remark: listed apart in the source
Summary of the method: as §1

HCC1937 [24] = experiment: as above; details: incubation time: 72 h
Summary of the method: as §1

BT-549 [25] = experiment: as above; details: incubation time: 72 h
Summary of the method: as §1

SK-BR-3 [26] = experiment: as above; details: incubation time: 72 h
Summary of the method: as §1

MDA-MB-468 [27] = experiment: as above; details: incubation time: 72 h
Summary of the method: as §1

CAL-85-1 [28] = experiment: as above; details: incubation time: 72 h
Summary of the method: as §1

BT-474 [29] = experiment: as above; details: incubation time: 72 h; remark: listed apart in the source
Summary of the method: as §1

HCC1599 = experiment: as above; details: incubation time: 72 h
Summary of the method: as §1

MDA-MB-231 [30] = experiment: as above; details: incubation time: 72 h; remark: listed apart in the source
Summary of the method: as §1

Hs578T [31] = experiment: as above; details: incubation time: 72 h
Summary of the method: as §1

MDA-MB-436 [32] = experiment: as above; details: incubation time: 72 h; remark: listed apart in the source
Summary of the method: as §1

HCC1937 [33] = details: 72 h
Summary of the method: as §2

EC50, CellTiter-Glo (MDA-MB-453 [4]): 552 nM
EC50, CellTiter-Glo (BT-549 [6]): 639 nM
EC50, CellTiter-Glo (SK-BR-3 [7]): 387 nM
EC50, CellTiter-Glo (MDA-MB-468 [8]): 613 nM
EC50, CellTiter-Glo (BT-474 [10]): > 1000 nM
EC50, CellTiter-Glo (MDA-MB-231 [11]): 554 nM
EC50, CellTiter-Glo (MDA-MB-436 [13]): 391 nM
SMILES: O=C1NC(=O)[C@@H](c2cn3c4c(cccc24)CCC3)[C@@H]1c1c[nH]c2ccccc12 [Tivantinib]
normalised viability (Hs578T [1]; 0.1 nM): 101%
normalised viability (MDA-MB-436 [2]; 0.1 nM): 127%
EC50, CellTiter-Glo (CAL-120 [3]): 991 nM
EC50, CellTiter-Glo (CAL-51 [5]): 744 nM
EC50, CellTiter-Glo (CAL-85-1 [9]): 528 nM
EC50, CellTiter-Glo (MCF-10A): 318 nM
EC50, CellTiter-Glo (Hs578T [12]): 519 nM
normalised viability (HDQ-P1 [14]; 10 nM): 100%
normalised viability (CAL-148 [15]; 10 nM): 97.9%
normalised viability (BT-474 [16]; 1000 nM): 45.4%
normalised viability (MDA-MB-231 [17]; 1000 nM): 29.8%
normalised viability (MDA-MB-436 [18]; 1000 nM): 52.3%
normalised viability (HDQ-P1 [19]; 0.3 nM): 104%
normalised viability (MFM-223; 1 nM): 83.8%
normalised viability (CAL-120 [20]; 1 nM): 93.4%
normalised viability (HCC1143; 1 nM): 90.7%
normalised viability (DU-4475; 0.3 nM): 107%
normalised viability (MDA-MB-453 [21]; 0.3 nM): 122%
normalised viability (CAL-51 [22]; 0.3 nM): 104%
normalised viability (CAL-148 [23]; 0.3 nM): 97.9%
normalised viability (HCC1937 [24]; 1 nM): 67.8%
normalised viability (BT-549 [25]; 1 nM): 107%
normalised viability (SK-BR-3 [26]; 1 nM): 105%
normalised viability (MDA-MB-468 [27]; 1 nM): 112%
normalised viability (CAL-85-1 [28]; 0.3 nM): 90.2%
normalised viability (BT-474 [29]; 1 nM): 127%
normalised viability (HCC1599; 1 nM): 115%
normalised viability (MDA-MB-231 [30]; 1 nM): 106%
normalised viability (Hs578T [31]; 1 nM): 133%
normalised viability (MDA-MB-436 [32]; 1 nM): 97.7%

EC50, CellTiter-Glo (HCC1937 [33]): > 10000 nM
EC50, CellTiter-Glo (BT-549 [6]): 3270 nM
EC50, CellTiter-Glo (SK-BR-3 [7]): 5430 nM
EC50, CellTiter-Glo (MDA-MB-468 [8]): 7960 nM
EC50, CellTiter-Glo (BT-474 [10]): 1660 nM
EC50, CellTiter-Glo (MDA-MB-231 [11]): 2840 nM
EC50, CellTiter-Glo (MDA-MB-436 [13]): 7370 nM
SMILES: CN(C)CCN1C(=O)c2cccc3cc(N)cc(c23)C1=O [Amonafide]
normalised viability (Hs578T [1]; 1 nM): 121%
normalised viability (MDA-MB-436 [2]; 1 nM): 102%
EC50, CellTiter-Glo (CAL-120 [3]): 2700 nM
EC50, CellTiter-Glo (CAL-51 [5]): 5570 nM
EC50, CellTiter-Glo (CAL-85-1 [9]): 9240 nM
EC50, CellTiter-Glo (MCF-10A): 8420 nM
EC50, CellTiter-Glo (Hs578T [12]): 1920 nM
normalised viability (HDQ-P1 [14]; 100 nM): 110%
normalised viability (CAL-148 [15]; 100 nM): 84.7%
normalised viability (BT-474 [16]; 10000 nM): 69.3%
normalised viability (MDA-MB-231 [17]; 10000 nM): 22.3%
normalised viability (MDA-MB-436 [18]; 10000 nM): 44.1%
normalised viability (HDQ-P1 [19]; 3 nM): 98.5%
normalised viability (MFM-223; 10 nM): 92.1%
normalised viability (CAL-120 [20]; 10 nM): 82%
normalised viability (HCC1143; 10 nM): 83.6%
normalised viability (DU-4475; 3 nM): 100%
normalised viability (MDA-MB-453 [21]; 3 nM): 106%
normalised viability (CAL-51 [22]; 3 nM): 112%
normalised viability (CAL-148 [23]; 3 nM): 88.8%
normalised viability (HCC1937 [24]; 10 nM): 91.8%
normalised viability (BT-549 [25]; 10 nM): 84.9%
normalised viability (SK-BR-3 [26]; 10 nM): 99.9%
normalised viability (MDA-MB-468 [27]; 10 nM): 105%
normalised viability (CAL-85-1 [28]; 3 nM): 91.6%
normalised viability (BT-474 [29]; 10 nM): 114%
normalised viability (HCC1599; 10 nM): 98.2%
normalised viability (MDA-MB-231 [30]; 10 nM): 97.2%
normalised viability (Hs578T [31]; 10 nM): 113%
normalised viability (MDA-MB-436 [32]; 10 nM): 111%

EC50, CellTiter-Glo (MDA-MB-453 [4]): 780 nM
EC50, CellTiter-Glo (HCC1937 [33]): 2940 nM
EC50, CellTiter-Glo (BT-549 [6]): 168 nM
EC50, CellTiter-Glo (SK-BR-3 [7]): 25.7 nM
EC50, CellTiter-Glo (MDA-MB-468 [8]): 68.5 nM
EC50, CellTiter-Glo (BT-474 [10]): 769 nM
EC50, CellTiter-Glo (MDA-MB-231 [11]): 953 nM
EC50, CellTiter-Glo (MDA-MB-436 [13]): 294 nM
SMILES: NS(=O)(=O)OC[C@@H]1C[C@@H](n2ccc3c(N[C@H]4CCc5ccccc54)ncnc32)C[C@@H]1O [Pevonedistat]
EC50, CellTiter-Glo (CAL-120 [3]): 448 nM
EC50, CellTiter-Glo (CAL-51 [5]): 91.2 nM
EC50, CellTiter-Glo (CAL-85-1 [9]): 191 nM
EC50, CellTiter-Glo (Hs578T [12]): 679 nM
